Laboratory results published in US20260125382A1, “COMPOUNDS FOR INHIBITING OR DEGRADING CDK2 AND/OR CDK9 AND MEDICINAL USE THEREOF” (KOREA RESEARCH INSTITUTE OF CHEMICAL TECHNOLOGY, priority 2022, published 2026).

Columns and labels:
CDK2 = target: T1, CDK2 (Homo sapiens, UniProt P24941); test: CDK protein degradation activity (Western blotting), CDK2; format: cell-based; conditions: MDA-MB-231 cells, 16 hours, Western blot
T1 construct: endogenous in cells; host or cells: MDA-MB-231
Procedure, shortened: (§1)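 Degradation is judged from CDK2 and CDK9 band intensity relative to tubulin and DMSO-treated cells, after 16 h exposure of MDA-MB-231 cells to three compound concentrations (100 nM, 1 μM, 10 μM).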

CDK9 = target: T2, CDK9 (Homo sapiens, UniProt P50750); test: CDK protein degradation activity (Western blotting), CDK9; format: cell-based; conditions: MDA-MB-231 cells, 16 hours, Western blot
T2 construct: endogenous in cells; host or cells: MDA-MB-231
T2 sequence (P50750 whole entry): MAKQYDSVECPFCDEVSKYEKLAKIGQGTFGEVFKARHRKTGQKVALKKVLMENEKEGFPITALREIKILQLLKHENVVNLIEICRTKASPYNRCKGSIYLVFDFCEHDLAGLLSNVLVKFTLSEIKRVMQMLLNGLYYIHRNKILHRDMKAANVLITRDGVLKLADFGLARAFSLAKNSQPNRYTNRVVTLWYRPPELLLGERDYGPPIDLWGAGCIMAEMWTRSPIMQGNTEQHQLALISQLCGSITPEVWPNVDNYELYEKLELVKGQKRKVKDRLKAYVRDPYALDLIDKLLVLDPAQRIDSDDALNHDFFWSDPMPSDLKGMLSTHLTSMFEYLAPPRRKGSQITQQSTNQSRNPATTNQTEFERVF
Procedure, shortened: as §1

| Compound | Enzyme degradation CDK2 (% remaining) @ 0.1 μM (CDK2) | Enzyme degradation CDK2 (% remaining) @ 1 μM (CDK2) | Enzyme degradation CDK2 (% remaining) @ 10 μM (CDK2) | Enzyme degradation CDK9 (% remaining) @ 0.1 μM (CDK9) | Enzyme degradation CDK9 (% remaining) @ 1 μM (CDK9) | Enzyme degradation CDK9 (% remaining) @ 10 μM (CDK9) |
| --- | --- | --- | --- | --- | --- | --- |
| Cc1cccc(C(=O)NC2CC(n3cnc4c(NCCCN5CCN(CC6CCN(C(=O)CNc7ccc8c(c7)C(=O)N([C@@H]7CCC(=O)NC7=O)C8=O)CC6)CC5)ncnc43)C2)n1 (stereo partly drawn) [Compound 145, N-((1r,3r)-3-(6-((3-(4-((1-((2-(2,6-dioxopiperidin-3-yl)-1,3-dioxoisoindolin-5-yl)glycyl)piperidin-4-yl)methyl)piperazin-1-yl)propyl)amino)-9H-purin-9-yl)cyclobutyl)-6-methylpicolinamide] | 30% | 50% | 50% | 0/0/0% | 0/0/0% | 0/0/0% |
| Cc1cccc(C(=O)NC2CC(n3cnc4c(NCc5ccc(N6CCN(C(=O)CNc7cccc8c7C(=O)N([C@H]7CCC(=O)NC7=O)C8=O)CC6)cc5)ncnc43)C2)n1 (stereo partly drawn) [Compound 148, N-((1s,3s)-3-(6-((4-(4-((2-(2,6-dioxopiperidin-3-yl)-1,3-dioxoisoindolin-4-yl)glycyl)piperazin-1-yl)benzyl)amino)-9H-purin-9-yl)cyclobutyl)-6-methylpicolinamide] | 40% | 50% | 60% | 10% | 0% | 0% |
| Cc1cccc(C(=O)N[C@H]2C[C@@H](n3cnc4c(NCc5ccc(N6CCN(C(=O)CNc7ccc8c(c7)C(=O)N([C@H]7CCC(=O)NC7=O)C8=O)CC6)cc5)ncnc43)C2)n1 [Compound 149, N-((1s,3s)-3-(6-((4-(4-((2-(2,6-dioxopiperidin-3-yl)-1,3-dioxoisoindolin-5-yl)glycyl)piperazin-1-yl)benzyl)amino)-9H-purin-9-yl)cyclobutyl)-6-methylpicolinamide] | 10% | 20% | 20% | 0/0/0% | 0/0/0% | 0/0/0% |
| Cc1cccc(C(=O)N[C@H]2C[C@@H](n3cnc4c(NCc5ccc(N6CCN(CC7CCN(c8ccc9c(c8)C(=O)N([C@H]8CCC(=O)NC8=O)C9=O)CC7)CC6)cc5)ncnc43)C2)n1 [Compound 151, N-((1s,3s)-3-(6-((4-(4-((1-(2-(2,6-dioxopiperidin-3-yl)-1,3-dioxoisoindolin-5-yl)piperidin-4-yl)methyl)piperazin-1-yl)benzyl)amino)-9H-purin-9-yl)cyclobutyl)-6-methylpicolinamide] | 30% | 10% | 10% | 0/0/0% | 0/0/0% | 0/0/0% |
| Cc1cccc(C(=O)NC2CC(n3cnc4c(NCc5ccc(N6CCN(CC7CCN(C(=O)CNc8cccc9c8C(=O)N([C@H]8CCC(=O)NC8=O)C9=O)CC7)CC6)cc5)ncnc43)C2)n1 (stereo partly drawn) [Compound 152, N-((1s,3s)-3-(6-((4-(4-((1-((2-(2,6-dioxopiperidin-3-yl)-1,3-dioxoisoindolin-4-yl)glycyl)piperidin-4-yl)methyl)piperazin-1-yl)benzyl)amino)-9H-purin-9-yl)cyclobutyl)-6-methylpicolinamide] | 10/10/10% | 10/10/10% | 10/10/10% | 0/0/0% | 0/0/0% | 0/0/0% |
| Cc1cccc(C(=O)NC2CC(n3cnc4c(NCc5ccc(N6CCN(CC7CCN(C(=O)CNc8ccc9c(c8)C(=O)N([C@H]8CCC(=O)NC8=O)C9=O)CC7)CC6)cc5)ncnc43)C2)n1 (stereo partly drawn) [Compound 153, N-((1s,3s)-3-(6-((4-(4-((1-((2-(2,6-dioxopiperidin-3-yl)-1,3-dioxoisoindolin-5-yl)glycyl)piperidin-4-yl)methyl)piperazin-1-yl)benzyl)amino)-9H-purin-9-yl)cyclobutyl)-6-methylpicolinamide] | 10/10/10% | 10/10/10% | 10/10/10% | 0/0/0% | 0/0/0% | 0/0/0% |
| CC(=O)N[C@H]1C[C@@H](n2cnc3c(NCC4CCN(CC5CCN(C(=O)COc6ccc7c(c6)C(=O)N([C@H]6CCC(=O)NC6=O)C7=O)CC5)CC4)ncnc32)C1 [Compound 154, N-((1s,3s)-3-(6-(((1-((1-(2-((2-(2,6-dioxopiperidin-3-yl)-1,3-dioxoisoindolin-5-yl)oxy)acetyl)piperidin-4-yl)methyl)piperidin-4-yl)methyl)amino)-9H-purin-9-yl)cyclobutyl)acetamide] | 100% | 70% | 70% | 90% | 70% | 30% |

Further lines, results first:

| Enzyme degradation CDK2 (% remaining) @ 0.1 μM (CDK2) | Enzyme degradation CDK2 (% remaining) @ 1 μM (CDK2) | Enzyme degradation CDK2 (% remaining) @ 10 μM (CDK2) | Enzyme degradation CDK9 (% remaining) @ 0.1 μM (CDK9) | Enzyme degradation CDK9 (% remaining) @ 1 μM (CDK9) | Enzyme degradation CDK9 (% remaining) @ 10 μM (CDK9) | Compound |
| --- | --- | --- | --- | --- | --- | --- |
| 80% | 70% | 50% | 70% | 0% | 0% | Cc1cccc(C(=O)NC2CC(n3cnc4c(NCCCN5CCN(CC6CCN(C(=O)COc7cccc8c7C(=O)N([C@@H]7CCC(=O)NC7=O)C8=O)CC6)CC5)ncnc43)C2)n1 (stereo partly drawn) [Compound 142, N-((1r,3r)-3-(6-((3-(4-((1-(2-((2-(2,6-dioxopiperidin-3-yl)-1,3-dioxoisoindolin-4-yl)oxy)acetyl)piperidin-4-yl)methyl)piperazin-1-yl)propyl)amino)-9H-purin-9-yl)cyclobutyl)-6-methylpicolinamide] |
| 80% | 50% | 100% | 0/0/0% | 0/0/0% | 0/0/0% | Cc1cccc(C(=O)NC2CC(n3cnc4c(NCCCN5CCN(CC6CCN(C(=O)CNc7cccc8c7C(=O)N([C@@H]7CCC(=O)NC7=O)C8=O)CC6)CC5)ncnc43)C2)n1 (stereo partly drawn) [Compound 143, N-((1r,3r)-3-(6-((3-(4-((1-((2-(2,6-dioxopiperidin-3-yl)-1,3-dioxoisoindolin-4-yl)glycyl)piperidin-4-yl)methyl)piperazin-1-yl)propyl)amino)-9H-purin-9-yl)cyclobutyl)-6-methylpicolinamide] |
| 100% | 70% | 70% | 80% | 10% | 0% | Cc1cccc(C(=O)NC2CC(n3cnc4c(NCCCN5CCN(CC6CCN(C(=O)COc7ccc8c(c7)C(=O)N([C@@H]7CCC(=O)NC7=O)C8=O)CC6)CC5)ncnc43)C2)n1 (stereo partly drawn) [Compound 144, N-((1r,3r)-3-(6-((3-(4-((1-(2-((2-(2,6-dioxopiperidin-3-yl)-1,3-dioxoisoindolin-5-yl)oxy)acetyl)piperidin-4-yl)methyl)piperazin-1-yl)propyl)amino)-9H-purin-9-yl)cyclobutyl)-6-methylpicolinamide] |
| 70% | 80% | 80% | 20% | 10% | 0% | Cc1cccc(C(=O)NC2CC(n3cnc4c(NCc5ccc(N6CCN(CC7CCN(c8cccc9c8C(=O)N([C@H]8CCC(=O)NC8=O)C9=O)CC7)CC6)cc5)ncnc43)C2)n1 (stereo partly drawn) [Compound 150, N-((1s,3s)-3-(6-((4-(4-((1-(2-(2,6-dioxopiperidin-3-yl)-1,3-dioxoisoindolin-4-yl)piperidin-4-yl)methyl)piperazin-1-yl)benzyl)amino)-9H-purin-9-yl)cyclobutyl)-6-methylpicolinamide] |
| 100% | 80% | 10% | 90% | 40% | 0% | CC(=O)NC1CC(n2cnc3c(NCC4CCN(CC5CCN(C(=O)COc6cccc7c6C(=O)N([C@H]6CCC(=O)NC6=O)C7=O)CC5)CC4)ncnc32)C1 (stereo partly drawn) [Compound 155, N-((1s,3s)-3-(6-(((1-((1-(2-((2-(2,6-dioxopiperidin-3-yl)-1,3-dioxoisoindolin-4-yl)oxy)acetyl)piperidin-4-yl)methyl)piperidin-4-yl)methyl)amino)-9H-purin-9-yl)cyclobutyl)acetamide] |
| 100% | 80% | 70% | 80% | 50% | 40% | CC(=O)N[C@H]1C[C@@H](n2cnc3c(NCC4CCN(CC5CCN(C(=O)CNc6ccc7c(c6)C(=O)N([C@H]6CCC(=O)NC6=O)C7=O)CC5)CC4)ncnc32)C1 [Compound 156, N-((1s,3s)-3-(6-(((1-((1-((2-(2,6-dioxopiperidin-3-yl)-1,3-dioxoisoindolin-5-yl)glycyl)piperidin-4-yl)methyl)piperidin-4-yl)methyl)amino)-9H-purin-9-yl)cyclobutyl)acetamide] |
